Data from patent US8470384B2, “Oxalamide derivative as umami flavouring agent” (Givaudan S.A., priority 2010, dated 2013).

Key:
[1] = test system: professional panel composed of 2 women and 3 men; experiment: Tasting of NaCl/MSG/ribonucleotide solutions with reduced MSG by a professional panel (Example 3); type: in vivo, human; settings: solution B (0.5% NaCl, 0.05% MSG, 0.010% ribonucleotide mixture, 1.5 ppm compound) vs solution A (0.5% NaCl, 0.15% MSG, 0.025% ribonucleotide mixture)
Procedure: (§1) Two solutions were prepared:
A—a solution of 0.5% NaCl, 0.15% MSG and 0.025% Ribonucleotide mixture
B—a solution of 0.5% NaCl, 0.05% MSG, 0.010% Ribonucleotide mixture and 1.5 ppm of N1-geranyl-N2-(2-(pyridin-2-yl)ethyl)oxalamide.
The samples were tasted by a professional panel composed of 2 women and 3 men aged between 30 and 60.

[2] = test system: professional panel composed of 2 women and 3 men; experiment: Tasting of 0.3% NaCl solutions by a professional panel (Example 2); type: in vivo, human
Procedure: as §1
A—a solution of 0.3% NaCl and 0.05% MSG
B—a solution of 0.3% NaCl and 3 ppm of N1-geranyl-N2-(2-(pyridin-2-yl)ethyl)oxalamide.
The samples were tasted by a professional panel composed of 2 women and 3 men aged between 30 and 60. The panel agreed that both solutions tasted umami.

[3] = General finding on umami flavour quality; settings: very low dosages; in contrast to many other non-MSG umami flavourants
[4] = solution B (0.3% NaCl, 3 ppm compound) vs solution A (0.3% NaCl, 0.05% MSG)

## CC(C)=CCC/C(C)=C/CNC(=O)C(=O)NCCc1ccccn1 [N1-geranyl-N2-(2-(pyridin-2-yl)ethyl)oxalamide]
[1]
  umami strength compared with solution A: equal umami strength
[2]; [4]
  further taste attributes compared with solution A: more succulence and sweetness and had more lingering savoury notes
  umami strength compared with solution A: slightly stronger umami
[2]; solution B: 0.3% NaCl and 3 ppm of compound
  umami taste: tasted umami

## N[C@@H](CCC(=O)O)C(=O)[O-].[Na+] [MSG, monosodium glutamate, reference compound]
[2]; solution A: 0.3% NaCl and 0.05% MSG
  umami taste: tasted umami

## CC(C)=CCC/C(C)=C/CNC(=O)C(=O)NCCc1ccccn1 [the Umami Compound]
[3]
  umami flavour and its quality: clean, non-artificial taste
